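A five-concentration, 48-hour dose response in 96-well plates underlies each endpoint, interpolated linearly between surrounding concentrations. The concentration for 50% growth inhibition is given as GI50.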 Active and inactive are the calls of the source. Rule as the data show it: active = GI50 up to about 1.1 µM and inactive = higher.
Columns and labels:
Assay in all cases: NCI-60 cell line screen, 48 h
[1] = test system: M14
[2] = test system: M19-MEL
[3] = test system: MOLT-4
[4] = test system: EKVX
[5] = test system: HT-29
[6] = test system: Malme-3M
[7] = test system: UACC-62
[8] = test system: HCT-116
[9] = test system: SF-295
[10] = test system: OVCAR-3
[11] = test system: HOP-92
[12] = test system: KM12
[13] = test system: 786-0
[14] = test system: SN12C
[15] = test system: NCI-H522
[16] = test system: SW-620
[17] = test system: A498
[18] = test system: Hs-578T
[19] = test system: PC-3
[20] = test system: BT-549

Measured: GI50

COc1ccc(-c2cc(O)c3ccc(F)cc3n2)cc1
inactive: [1] > 100 µM | [2] > 100 µM | [3] > 100 µM | [4] > 100 µM | [5] > 100 µM | [6] > 100 µM | [7] > 100 µM | [8] > 100 µM | [9] > 100 µM | [10] > 100 µM | [11] > 100 µM | [12] 77.4 µM | [13] > 100 µM | [14] > 100 µM | [15] > 100 µM | [16] > 100 µM

Cc1cc(NCCCCCCCCNc2cc(C)nc3cc(N(C)C)ccc23)c2ccc(N(C)C)cc2n1
inactive: [1] 3.73 µM | [2] 2.78 µM | [3] 2 µM | [4] 7.1 µM | [8] 3.4 µM | [9] 8.65 µM | [10] 3.86 µM | [11] 2.58 µM | [17] 17.5 µM | [12] 2.82 µM | [13] 7.16 µM | [14] 1.64 µM | [15] 2.75 µM | [16] 6.81 µM

CCOC(=O)CCC(NC(=O)c1ccc(Nc2cnc3ccc(C(F)(F)F)cc3n2)cc1)C(=O)OCC (centres undefined)
inactive: [1] > 100 µM | [3] 2.2 µM | [4] 30.1 µM | [5] > 80.5 µM | [6] 41 µM | [7] 20.6 µM | [8] 14.5 µM | [9] 31.1 µM | [18] 6.79 µM | [10] > 100 µM | [11] 8.36 µM | [19] > 81.8 µM | [17] 26.4 µM | [20] 20.9 µM | [12] 24.2 µM | [13] 10.5 µM | [14] > 83.8 µM | [15] 65.6 µM | [16] > 70.6 µM

O=C1CCCC2COc3ccc(O)c1c32 (centres undefined)
inactive: [1] > 100 µM | [2] > 100 µM | [3] > 100 µM | [4] > 100 µM | [5] > 100 µM | [6] > 100 µM | [7] > 100 µM | [9] > 100 µM | [10] > 100 µM | [11] > 100 µM | [17] > 100 µM | [12] > 100 µM | [13] > 100 µM | [14] > 100 µM | [15] > 100 µM

COc1ccccc1/C=C/C(=O)c1sc(-c2cccnc2)nc1C
inactive: [2] > 100 µM | [3] 61.7 µM | [4] > 100 µM | [5] > 100 µM | [6] > 100 µM | [7] > 100 µM | [9] 46.5 µM | [10] > 100 µM | [11] > 100 µM | [17] > 100 µM | [12] 65.2 µM | [13] > 100 µM | [14] > 100 µM | [15] > 100 µM | [16] > 100 µM

NNC(=O)C(=O)N/N=C1\CCC(=O)CC1C(=O)CCC(=O)Nc1ccc(Cl)cc1 (centres undefined)
inactive: [1] > 100 µM | [2] > 100 µM | [3] > 100 µM | [4] > 100 µM | [5] > 100 µM | [6] > 100 µM | [7] > 100 µM | [8] > 100 µM | [9] > 100 µM | [10] 95.3 µM | [17] > 100 µM | [12] 64 µM | [13] > 100 µM | [14] > 100 µM | [16] > 100 µM

Clc1cccc2c1OCC1C(c3ccccc3)=NN(c3ccccc3)C21 (centres undefined)
inactive: [2] > 100 µM | [3] 35.2 µM | [4] 40.1 µM | [5] 83.9 µM | [6] > 100 µM | [8] 12.9 µM | [9] 72.1 µM | [10] > 100 µM | [11] 64.4 µM | [17] > 100 µM | [12] 87.1 µM | [13] 55.6 µM | [15] 45.4 µM | [16] > 100 µM

CC1(C)[C@H]2CC[C@](C)(C2)[C@]1(S)Cc1ccccn1
inactive: [1] 84.1 µM | [3] 15.3 µM | [4] 46.5 µM | [5] 24.9 µM | [6] 46.1 µM | [7] 67.8 µM | [8] 32.8 µM | [9] 26.4 µM | [18] 57.8 µM | [10] 21.7 µM | [11] 34.5 µM | [19] 21.7 µM | [17] > 100 µM | [20] 90.4 µM | [12] 42.9 µM | [13] 27 µM | [14] 56.8 µM | [15] 65.9 µM | [16] 36.3 µM

C/C(=C1/N=C(c2cc([N+](=O)[O-])ccc2Cl)N(c2ccc(Br)cc2)C1=O)c1ccc(N(CCC#N)CCC#N)cc1C
inactive: [1] 13.6 µM | [2] 29.1 µM | [3] 9.62 µM | [4] > 100 µM | [5] 36.9 µM | [6] 77.8 µM | [7] 3.61 µM | [8] 15.6 µM | [9] 79.3 µM | [10] 24.5 µM | [11] 36.4 µM | [17] 25.7 µM | [12] 15.1 µM | [13] 29.6 µM | [14] 40.4 µM | [16] 12.7 µM

FC(F)(F)c1cccc(C2SCc3nc4ccccc4n32)c1 (centres undefined)
inactive: [2] > 100 µM | [3] 41.4 µM | [4] 73.3 µM | [5] > 100 µM | [6] > 100 µM | [7] > 100 µM | [8] 38.9 µM | [9] 33.9 µM | [10] 56 µM | [11] 2.41 µM | [12] 68.4 µM | [13] 61.5 µM | [14] > 100 µM | [15] 17.6 µM | [16] > 100 µM

C/C(CC(=O)Nc1cc(C)ccc1C)=N\NC(=O)c1ccncc1
inactive: [1] > 100 µM | [2] > 100 µM | [3] > 100 µM | [4] > 100 µM | [5] > 100 µM | [6] > 100 µM | [7] > 100 µM | [8] > 100 µM | [9] > 100 µM | [10] > 100 µM | [11] 79.6 µM | [12] > 100 µM | [13] > 100 µM | [15] 78 µM | [16] > 100 µM

COC(=O)CC(NC(=O)OCc1ccccc1)C(C(=O)OCc1ccccc1)C1(C)OCCO1 (centres undefined)
inactive: [1] 40.7 µM | [2] 30.2 µM | [3] 20.5 µM | [4] 44.4 µM | [5] 53.6 µM | [6] 33.3 µM | [7] 18.7 µM | [8] 40.4 µM | [9] 32.4 µM | [10] 53.8 µM | [17] 18.2 µM | [13] 51.4 µM | [14] 47.4 µM | [16] 47.6 µM

COc1cc2c3c(cc(Cl)nc3c1OC)C(O)(CC(=O)c1ccccc1)C(=O)N2 (centres undefined)
inactive: [1] 16.4 µM | [3] 1.71 µM | [4] 5.14 µM | [5] 21.7 µM | [6] 2.38 µM | [7] 6.18 µM | [8] 4.69 µM | [9] 17.9 µM | [18] 21.7 µM | [10] 15.6 µM | [11] 1.94 µM | [19] 15.3 µM | [17] 18.4 µM | [20] 16.4 µM | [12] 17.3 µM | [13] 8.93 µM | [14] 6.79 µM | [15] 2.89 µM | [16] 4 µM

COc1cc(C(O)C(=O)c2cnc3cc([N+](=O)[O-])ccc3n2)ccc1O (centres undefined)
inactive: [1] > 100 µM | [2] > 100 µM | [3] > 100 µM | [4] 72.3 µM | [5] > 100 µM | [6] > 100 µM | [7] 62.1 µM | [8] > 100 µM | [9] > 100 µM | [17] > 100 µM | [12] > 100 µM | [13] > 100 µM | [14] > 100 µM | [16] > 100 µM

COC1=C(C)C(=O)C2C(C1=O)C(c1ccc(OC)c(OC)c1)[C@H]2C (some centres undefined)
inactive: [1] > 100 µM | [2] > 100 µM | [3] > 100 µM | [4] > 100 µM | [5] > 100 µM | [6] > 100 µM | [7] > 100 µM | [9] > 100 µM | [10] > 100 µM | [11] > 100 µM | [17] > 100 µM | [12] > 100 µM | [13] > 100 µM | [15] > 100 µM | [16] > 100 µM

C=C1C2CC(OC(C)=O)C3(C)C(c4ccoc4)OC(=O)[C@@H](O)[C@]13OC1C[C@H](OC(C)=O)C(C)(C)[C@H](C(O)C(=O)OC)[C@]12C (some centres undefined)
inactive: [1] > 100 µM | [2] > 100 µM | [3] > 100 µM | [4] > 100 µM | [5] > 100 µM | [7] > 100 µM | [8] > 100 µM | [9] > 100 µM | [10] > 100 µM | [11] 4.17 µM | [17] > 100 µM | [12] > 100 µM | [13] > 100 µM | [14] > 100 µM | [16] > 100 µM

COc1ccc(Nc2n[nH]c(NS(=O)(=O)c3cc(C)c(Cl)cc3S)n2)cc1
inactive: [1] > 100 µM | [3] > 100 µM | [4] > 100 µM | [5] > 100 µM | [6] > 100 µM | [7] > 100 µM | [8] > 100 µM | [9] > 100 µM | [18] > 100 µM | [10] > 100 µM | [11] > 100 µM | [19] > 100 µM | [17] > 100 µM | [20] > 100 µM | [12] > 100 µM | [13] > 100 µM | [14] > 100 µM | [15] > 100 µM | [16] > 100 µM

From ChEMBL document CHEMBL1201862, “PubChem BioAssay data set” (2004)
